Among the data in patent US6943183B2 (Pfizer Inc, priority 2000, dated 2005) are IC50 values, retold here.

This test concerns the target T1, SF9 affinity purified rat FPT (Rattus norvegicus, UniProt Q02293+Q04631).
T1 construct: made in house; host or cells: Sf9 insect cells
The test can be described thus: PFT (FPT) inhibitory activity assay, radiolabeled farnesyl pyrophosphate and biotinyl peptide, streptavidin beads. It counts as biochemical. To be noted: HEPES buffer pH 7.4, 30° C., 30 minutes; read-out: FTase IC50. On the procedure: The PFT or FPT inhibitory activity of compounds of the present invention were assayed in HEPES buffer (pH 7.4) containing 5 mM potassium phosphate and 20 μM ZnCl2. The solution also contained 5 mM DTT (dithiothreitol), 5 mM MgCl2, and 0.1% PEG 8000. Assays were performed in 96 well plates (Wallec) and employed solutions composed of varying concentrations of a compound of the present invention in 10% DMSO (dimethylsulfoxide). […] After incubation at 30° C. for 30 minutes, the reaction was terminated by diluting the reaction 2.5-fold with a stop buffer containing 1.5 M magnesium acetate, 0.2 M H3PO4, 0.5% BSA (bovine serum albumin), and strepavidin beads (Amersham) at a concentration of 1.3 mg/mL. […] The assay was also carried out without 5 mM potassium phosphate.

In the case of `O=C1CCCc2c1ccc(O[C@H](Cn1ccnc1)c1ccccc1)c2-c1cccc(Cl)c1` [Compound 22, 6-((1S)-2-Imidazolyl-1-phenylethoxy)-5-(3-chlorophenyl)-2,3,4-trihydronaphthalen-1-one], the IC50 was determined as 26 nM.
The same measure for `O=C1CCCc2c1ccc(O[C@H](Cn1ccnc1)c1ccccc1)c2-c1ccc2ccccc2c1` [Compound 23, 6-((1S)-2-Imidazolyl-1-phenylethoxy)-5-(2-naphthyl)-2,3,4-trihydronaphthalen-1-one]: 11 nM.
For `O=C1CCCc2c1ccc(O[C@H](Cn1ccnc1)c1ccccc1)c2CCc1ccccn1` [Compound 24, 6-((1S)-2-Imidazolyl-1-phenylethoxy)-5-(2-(2-pyridyl)ethyl)-2,3,4-trihydronaphthalen-1-one] the value was 0.4 nM.
Consider `O=C1CCCc2c1ccc(O[C@H](Cn1ccnc1)c1ccccc1)c2CCc1cccc[n+]1[O-]` [Compound 25, 6-((1S)-2-Imidazolyl-1-phenylethoxy)-5-[2-(1-oxy(2-pyridyl))ethyl]-2,3,4-trihydronaphthalen-1-one], for which the IC50 worked out at 5 nM.
`O=C1CCCc2c1ccc(O[C@H](Cn1ccnc1)c1ccccc1)c2CCc1ccncc1` [Compound 26, 6-((1S)-2-Imidazolyl-1-phenylethoxy)-5-(2-(4-pyridyl)ethyl)-2,3,4-trihydronaphthalen-1-one]: the IC50 amounted to 2 nM.
The same measure for `O=C1CCCc2c1ccc(O[C@H](Cn1ccnc1)c1ccccc1)c2CCc1cc[n+]([O-])cc1` [Compound 26a]: 5 nM; for `O=C1CCCc2c1ccc(O[C@H](Cn1ccnc1)c1ccccc1)c2CCc1cccnc1` [Compound 26b, (S)-6-(-2-imidazol-1-yl-phenyl-ethoxy)-5-(2-pyridin-3-yl-ethyl)-3,4-dihydro-2H-naphthalen-1-one]: 0.85 nM; for `O=C1CCCc2c1ccc(O[C@H](Cn1ccnc1)c1ccccc1)c2CCc1cncc2ccccc12` [Compound 26c, (S)-6-(-2-Imidazol-1-yl-1-phenyl-ethoxy)-5-(2-isoquinolin-4-yl-ethyl)-3,4-dihydro-2H-naphthalen-1-one]: 0.2 nM.
For `COC(=O)c1ccc(CCc2c(O[C@H](Cn3ccnc3)c3ccccc3)ccc3c2CCCC3=O)cc1` [Compound 27, Methyl 4-(2-[2-((1S)-2-imidazolyl-1-phenylethoxy)-5-oxo-6,7,8-trihydronaphthyl]ethyl}benzoate] the value was 10 nM; for `COC(=O)c1ccc(CCc2c(O[C@H](Cn3ccnc3)c3ccccc3)ccc3c2CCCC3=O)cc1` [Compound 28, Methyl 4-{2-[2-((1S)-2-imidazolyl-1-phenylethoxy)-5-oxo-6,7,8-trihydronaphthyl]ethyl}benzoate], 13 nM; for `CNC(=O)c1ccc(CCc2c(O[C@H](Cn3ccnc3)c3ccccc3)ccc3c2CCCC3=O)cc1` [Compound 29], 0.1 nM.
Consider `O=C1CCCc2c1ccc(O[C@H](Cn1ccnc1)c1ccccc1)c2CCc1ccc(F)cc1` [Compound 30, 6-((1S)-2-Imidazolyl-1-phenylethoxy)-5-[2-(4-fluorophenyl)ethyl]-2,3,4-trihydronaphthalen-1-one], for which the IC50 is 0.2 nM.
The same measure for `COC(=O)CCc1c(O[C@H](Cn2ccnc2)c2ccccc2)ccc2c1CCCC2=O` [Compound 31, Methyl 3-[2-((1S)-2-imidazolyl-1-phenylethoxy)-5-oxo-6,7,8-trihydronaphthyl]propanoate]: 10 nM; for `O=C(O)CCc1c(O[C@H](Cn2ccnc2)c2ccccc2)ccc2c1CCCC2=O` [Compound 32, 3-[2-((1S)-2-Imidazolyl-1-phenylethoxy)-5-oxo-6,7,8-trihydronaphthyl]propanoic acid]: 25 nM.
`N#Cc1ccc(Cc2c(O[C@H](Cn3ccnc3)c3ccccc3)ccc3c2CCCC3=O)cc1` [Compound 33, 4-{[2-((1S)-2-Imidazolyl-1-phenylethoxy)-5-oxo-6,7,8-trihydronaphthyl]methyl}benzenecarbonitrile]: the IC50 turned out to be 4 nM.
As for `O=C1CCCc2c1ccc(O[C@H](Cn1ccnc1)c1ccccc1)c2Br` [Compound 34, 6-((1S)-2-Imidazolyl-1-phenylethoxy)-5-bromo-2,3,4-trihydronaphthalen-1-one], the IC50 came out at 25 nM.
The same measure for `O=C1CCCc2c1ccc(O[C@H](Cn1ccnc1)c1ccccc1)c2-c1ccsc1` [Compound 35]: 15 nM; for `O=C1CCCc2c1ccc(O[C@H](Cn1ccnc1)c1ccccc1)c2-c1ccoc1` [Compound 36]: 7 nM; for `Nc1c(O[C@H](Cn2ccnc2)c2ccccc2)ccc2c1CCCC2=O` [Compound 37a, 5-Amino-6-((S)-2-imidazol-1-yl-1-phenyl-ethoxy)-3,4-dihydro-2H-naphthalen-1-one]: 14 nM.
Consider `O=C1CCCc2c1ccc(O[C@H](Cn1ccnc1)c1ccccc1)c2NS(=O)(=O)c1ccccc1` [Compound 38, N-[2-((S)-2-Imidazol-1-yl-1-phenyl-ethoxy)-5-oxo-5,6,7,8-tetrahydro-naphthalen-1-yl]-benzenesulfonamide], for which the IC50 amounted to 31 nM.
For `O=C1CCCc2c1ccc(O[C@H](Cn1ccnc1)c1ccccc1)c2NS(=O)(=O)Cc1ccccc1` [Compound 39, N-[2-((S)-2-Imidazol-1-yl-1-phenyl-ethoxy)-5-oxo-5,6,7,8-tetrahydro-naphthalen-1-yl]-1-phenyl-methanesulfonamide] the value was 1 nM; for `O=C(Cc1ccccn1)Nc1c(O[C@H](Cn2ccnc2)c2ccccc2)ccc2c1CCCC2=O` [Compound 39a, N-[2-((S)-2-Imidazol-1-yl-1-phenyl-ethoxy)-5-oxo-5,6,7,8-tetrahydro-naphthalen-1-yl]-2-pyridin-2-yl-acetamide], 38 nM; for `O=C(Nc1c(O[C@H](Cn2ccnc2)c2ccccc2)ccc2c1CCCC2=O)c1ccccn1` [Compound 40, Pyridine-2-carboxylic acid [2-((S)-2-imidazol-1-yl-1-phenyl-ethoxy)-5-oxo-5,6,7,8-tetrahydro-naphthalen-1-yl]-amide], 7.3 nM.
The same measure for `O=C1CCCc2c1ccc(O[C@H](Cn1ccnc1)c1ccccc1)c2NC(=O)c1nccc2ccccc12` [Compound 40a, Isoquinoline-1-carboxylic acid [2-((S)-2-imidazol-1-yl-1-phenyl-ethoxy)-5-oxo-5,6,7,8-tetrahydro-naphthalen-1-yl]-amide]: 0.65 nM.
As for `O=C(Nc1c(O[C@H](Cn2ccnc2)c2ccccc2)ccc2c1CCCC2=O)c1cc2ccccc2cn1` [Compound 40b, Isoquinioline-3-carboxylic acid [2-((S)-2-imidazol-1-yl-1-phenyl-ethoxy)-5-oxo-5,6,7,8-tetrahydro-naphthalen-1-yl]-amide], the IC50 worked out at 6 nM.
For `O=C(Nc1c(O[C@H](Cn2ccnc2)c2ccccc2)ccc2c1CCCC2=O)c1cnccn1` [Compound 40c] the value was 1.2 nM; for `O=C1CCCc2c1ccc(O[C@H](Cn1ccnc1)c1ccccc1)c2NC(=O)c1ncoc1-c1ccc(Cl)cc1` [Compound 40d, 5-(4-Chloro-phenyl)-oxazole-4-carboxylic acid [2-((S)-2-imidazol-1-yl-1-phenyl-ethoxy)-5-oxo-5,6,7,8-tetrahydro-naphthalen-1-yl]-amide], 9 nM.
For `O=C(Nc1c(O[C@H](Cn2ccnc2)c2ccccc2)ccc2c1CCCC2=O)c1cccnc1Cl` [Compound 40e, N-[2-((S)-2-Imidazol-1-yl-1-phenyl-ethoxy)-5-oxo-5,6,7,8-tetrahydro-naphthalen-1-yl]-2-chloro-nicotinamide] the value was 2.5 nM.
The same measure for `O=C(Nc1c(O[C@H](Cn2ccnc2)c2ccccc2)ccc2c1CCCC2=O)c1cccnc1Oc1ccccc1` [Compound 40f, N-[2-((S)-2-Imidazol-1-yl-1-phenyl-ethoxy)-5-oxo-5,6,7,8-tetrahydro-naphthalen-4-1-yl]-2-phenoxy-nicotinamide]: 13 nM; for `O=C1CCCc2c1ccc(O[C@H](Cn1ccnc1)c1ccccc1)c2NC(=O)c1cccc2cccnc12` [Compound 40g, Quinoline-8-carboxylic acid [2-((S)-2-imidazol-1-yl-1-phenyl-ethoxy)-5-oxo-5,6,7,8-tetrahydro-naphthalen-1-yl]-amide]: 0.8 nM; for `CC(C)(C)OC(=O)NCc1c(O[C@H](Cn2ccnc2)c2ccccc2)ccc2c1CCCC2=O` [Compound 41, [2-((S)-2-Imidazol-1-yl-1-phenyl-ethoxy)-5-oxo-5,6,7,8-tetrahydro-naphthalen-1-ylmethyl]-carbamic acid tert-butyl ester]: 14 nM.
With `O=C1CCCc2c1ccc(O[C@H](Cn1ccnc1)c1ccccc1)c2CNS(=O)(=O)c1ccccc1` [Compound 42, N-[2-((S)-2-Imidazol-1-y-1-phenyl-71-ethoxy)-5-oxo-5,6,7,8-tetrahydro-naphthalen-1-ylmethyl]-benzenesulfonamide], the IC50 stood at 1.5 nM.
Turning to `COc1ccc(S(=O)(=O)NCc2c(O[C@H](Cn3ccnc3)c3ccccc3)ccc3c2CCCC3=O)cc1` [Compound 42a, N-[2-((S)-2-Imidazol-1-yl-1-phenyl-ethoxy)-5-oxo-5,6,7,8-tetrahydro-naphthalen-1-ylmethyl]-4-methoxy-benzenesulfonamide], the IC50 was 1.1 nM.
As to `O=C1CCCc2c1ccc(O[C@H](Cn1ccnc1)c1ccccc1)c2CNS(=O)(=O)c1ccc(F)cc1F` [Compound 42b, 2,4-Difluoro-N-[2-((S)-2-imidazol-1-yl-1-phenyl-ethoxy)-5-oxo-5,6,7,8-tetrahydro-naphthalen-1-ylmethyl]-benzenesulfonamide; compound with trifluoro-acetic acid], the IC50 was found to be 3.5 nM.
